This is an account of results in patent US5252558A, “Pentapeptide having specific inhibiting effect on epidermal cell proliferation, the salts thereof, pharmaceutical compositions comprising the same and a process for the preparation of the pentapeptide and the pharmaceutical compositions” (Richter Gedeon Vegyeszeti Gyar RT, priority 1990, dated 1993).

The test system of the data set is cytoblastic medulla cells. The data set is described as follows: 51Cr-emission test (in vitro toxicity). Format: cell-based, rat. As for the experimental part:
The in vitro toxicity of the new compound was examined by ^51 Cr emission test.
6×10^7 cytoblastic medulla cells to be labelled were centrifuged (1000 rotations/minute for 7 minutes), then the cells were suspended in 1 ml of TC-199 Parker medium (product of OKI) and incubated with ^51 Cr ray source of an activity of 3.7×10^7 Bq (1 mCi) at a temperature of 37° C. for 1 hour, then the labelled cells were washed with 60 ml of medium. When the evaluation was carried out, the cell suspension was centrifuged after the treatment with the oligopeptide and the radioactivity of the supernatant was measured.
When the ^51 Cr emission test was evaluated, the cell suspension was treated with the oligopeptide and centrifuged, then the activity of the supernatant was determined by a Packard apparatus.

Residues, ends and D or L forms follow the SMILES beside them. *: point of attachment. X1 = O=C1CCC[C@@H](C(=O)*)N1

As to `O=C(O)CC[C@H](NC(=O)[C@@H]1CCCC(=O)N1)C(=O)N[C@@H](CC(=O)O)C(=O)N[C@@H](CO)C(=O)NCC(=O)O` [pAad-EI, Xaa Glu Asp Ser Gly] (X1-EDSG-OH), the “51Cr-emission of cytoblastic medulla cells, cpm” value (concentration = 10^-8 mole/l, control 155,849) is recorded as 148,303 cpm. For the same molecule, the “toxicity by 51Cr emission (in words)” value (isotope emission compared to the control) is “not toxic”.
